Results published in ChEMBL document CHEMBL1201862, “PubChem BioAssay data set” (2004).
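A five-concentration, 48-hour dose response in 96-well plates underlies each endpoint, interpolated linearly between surrounding concentrations. The concentration for 50% growth inhibition is given as GI50.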 Active and inactive are the calls of the source. Cut-off read from the data, not from the text of the source: active = GI50 up to about 1.1 µM and inactive = higher.

Experiments:
Test in all cases: growth of human tumour cells (NCI), 48 h
A498 = test system: A498
A549 = test system: A549
ACHN = test system: ACHN
BT-549 = test system: BT-549
CAKI-1 = test system: CAKI-1
HT-29 = test system: HT-29
IGROV-1 = test system: IGROV-1
K562 = test system: K562
M14 = test system: M14
MDA-N = test system: MDA-N
NCI-H226 = test system: NCI-H226
NCI-H522 = test system: NCI-H522
OVCAR-3 = test system: OVCAR-3
SF-268 = test system: SF-268
SK-MEL-2 = test system: SK-MEL-2
SN12C = test system: SN12C
SNB-19 = test system: SNB-19
SNB-75 = test system: SNB-75
T47D = test system: T47D
UACC-62 = test system: UACC-62

Measured: GI50

CC(NC(=O)OC(C)(C)C)C(=O)NC(Cc1ccccc1)C(=O)NCC(=O)ON=C1CCCC1 (stereo not given)
inactive: A498 > 100 µM | A549 > 100 µM | ACHN > 100 µM | BT-549 > 100 µM | CAKI-1 > 100 µM | HT-29 > 100 µM | IGROV-1 > 100 µM | K562 43.6 µM | M14 53.3 µM | MDA-N 35.6 µM | NCI-H226 > 100 µM | NCI-H522 32.7 µM | OVCAR-3 > 100 µM | SF-268 > 100 µM | SK-MEL-2 > 100 µM | SN12C > 100 µM | SNB-19 > 100 µM | SNB-75 93.1 µM | T47D > 100 µM | UACC-62 > 100 µM

N#C/C(=C\NC(=S)c1ccncc1)c1nc2ccccc2s1
inactive: A498 > 100 µM | A549 > 100 µM | ACHN > 100 µM | BT-549 > 100 µM | CAKI-1 > 100 µM | HT-29 > 100 µM | IGROV-1 > 100 µM | K562 > 100 µM | M14 > 100 µM | MDA-N > 100 µM | NCI-H226 > 100 µM | NCI-H522 > 100 µM | OVCAR-3 43.4 µM | SF-268 > 100 µM | SK-MEL-2 82.2 µM | SN12C > 100 µM | SNB-19 > 100 µM | SNB-75 68.1 µM | T47D 37.9 µM | UACC-62 > 100 µM

OC1CC2CCC(C1)N2CCCN1c2ccccc2Sc2ccc(Cl)cc21 (stereo not given)
inactive: A498 1.84 µM | A549 2.54 µM | ACHN 2.23 µM | BT-549 4.86 µM | CAKI-1 3.01 µM | HT-29 1.67 µM | IGROV-1 1.98 µM | K562 2.04 µM | M14 1.81 µM | MDA-N 1.87 µM | NCI-H226 5.94 µM | NCI-H522 1.99 µM | OVCAR-3 2.67 µM | SF-268 2.37 µM | SK-MEL-2 1.69 µM | SN12C 3.73 µM | SNB-19 3.88 µM | SNB-75 2.21 µM | T47D 2.23 µM | UACC-62 1.64 µM
